Measured values: patent publication US20220324835A1 (Nurix Therapeutics, Inc., priority 2018, published 2022)

What was measured:
T-cell [1] = assay: CD25 cell surface staining on T-cells stimulated with anti-CD3 antibody alone (Biological Example 2); format: cell-based, human; conditions: T-cell, fold change over baseline, primary human total T-cells, read-out: CD25 staining Anti-CD3 stimulation; for fold induction at 1 µM: 1 μM Cbl-b inhibitor; for fold induction at 8 µM: 8 μM Cbl-b inhibitor
Cbl-b = Cbl-b (Homo sapiens, UniProt Q13191); assay: Cbl-b activity assay (Cbl-b inhibition assay), TR-FRET of Cbl-b interaction with UbcH5B-Ub; format: biochemical; conditions: assay buffer with 100 mM NaCl, 60 nM Src kinase; read-out: Cbl-b activity IC50
Method in brief: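 TR-FRET readout of Cbl-b binding to Bodipy-fluorescein N-terminally labeled Ub conjugated to UbcH5B C85K, measured with compound present. After compound incubation, 60 nM Src kinase with 1 mM ATP and 5 mM MgCl2 (final) was added for 1.5 h, then a further 1 h incubation; asterisked values used 50 mM NaCl buffer and 30 nM Src.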

Cbl-b (residues 36-427) = Cbl-b (residues 36-427) (Homo sapiens, UniProt Q13191); assay: Cbl-b binding assay (SPR, Biacore T200); conditions: 20° C., 1:1 binding model
Method in brief: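 Affinities derived from global 1:1 steady-state or kinetic fits of double-referenced, solvent-corrected SPR data, 20 °C, NeutrAvidin-capture chip. Compound series (top 100 or 50 μM, 8–10 points) injected 50 s, 90–180 s dissociation. Asterisked values used 50 mM instead of 100 mM NaCl and 30 nM Src kinase.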

T-cell [2] = assay: IL-2 secretion from T-cells stimulated with anti-CD3 antibody alone (Biological Example 2); format: cell-based, human; conditions: T-cell, fold change over baseline, primary human total T-cells, read-out: IL-2 secretion Anti-CD3 stimulation; for fold induction at 1 µM: 1 μM Cbl-b inhibitor; for fold induction at 8 µM: 8 μM Cbl-b inhibitor

Chain of Cbl-b (residues 36-427) (Q13191 36-427): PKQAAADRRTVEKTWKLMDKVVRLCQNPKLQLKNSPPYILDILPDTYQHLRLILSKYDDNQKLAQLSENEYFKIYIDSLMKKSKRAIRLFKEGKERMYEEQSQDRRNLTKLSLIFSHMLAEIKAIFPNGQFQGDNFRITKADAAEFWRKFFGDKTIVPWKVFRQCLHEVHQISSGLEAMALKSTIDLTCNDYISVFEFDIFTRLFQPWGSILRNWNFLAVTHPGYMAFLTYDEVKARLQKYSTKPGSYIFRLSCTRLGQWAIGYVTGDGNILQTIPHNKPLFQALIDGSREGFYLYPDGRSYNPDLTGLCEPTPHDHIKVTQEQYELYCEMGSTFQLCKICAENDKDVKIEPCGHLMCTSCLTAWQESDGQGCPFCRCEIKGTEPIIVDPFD
Chain of Cbl-b (Q13191 36-427): as above

Row | SMILES | fold induction at 1 µM (T-cell [1]) | fold induction at 8 µM (T-cell [1]) | IC50 (Cbl-b) | Kd (Cbl-b (residues 36-427)) | fold induction at 1 µM (T-cell [2]) | fold induction at 8 µM (T-cell [2])
1 | Cc1ccc(C(=O)Nc2cccc([C@H](C)Sc3nncn3C)c2)nc1C1CC1 [Compound 54, (S)-6-cyclopropyl-5-methyl-N-(3-(1-((4-methyl-4H-1,2,4-triazol-3-yl)thio)ethyl)phenyl)picolinamide] | 0.601 to 0.8 | 0.801 to 1 | < 0.1 µM | 0.1 to 0.3 µM | < 0.05 | 0.151 to 0.2
2 | Cn1cnnc1CC1(c2cccc(N3Cc4c(cccc4C(F)(F)F)C3=O)c2)COC1 [Compound 301, 2-[3-[3-[(4-methyl-1,2,4-triazol-3-yl)methyl]oxetan-3-yl]phenyl]-4-(trifluoromethyl)isoindolin-1-one] | 0.801 to 1 | > 1 | < 0.1 µM | 0.301 to 1 µM | 0.051 to 0.1 | 0.101 to 0.15
3 | Cc1cnnn1C[C@@H](C)c1cccc(NC(=O)c2cccc(C(F)(F)F)n2)c1 [Compound 312a, (S)-N-(3-(1-(5-methyl-1H-1,2,3-triazol-1-yl)propan-2-yl)phenyl)-6-(trifluoromethyl)picolinamide] | 0.601 to 0.8 | 0.801 to 1 | 0.1 to 0.3 µM | 0.301 to 1 µM | 0.051 to 0.1 | 0.151 to 0.2
4 | C[C@H](Cc1nncn1C)c1cccc(N2Cc3c(cc(CN4CC[C@](C)(O)C4)cc3C(F)(F)F)C2=O)c1 [Compound 398, 6-(((S)-3-hydroxy-3-methylpyrrolidin-1-yl)methyl)-2-(3-((R)-1-(4-methyl-4H-1,2,4-triazol-3-yl)propan-2-yl)phenyl)-4-(trifluoromethyl)isoindolin-1-one] | – | – | < 0.1 µM | < 0.1 µM | – | –
5 | Cn1cnnc1C(F)(F)[C@](C)(F)c1cccc(N2Cc3c(cc(C(=O)N4CC[C@H](O)C4)cc3C(F)(F)F)C2=O)c1 [Compound 438, 6-((S)-3-hydroxypyrrolidine-1-carbonyl)-2-(3-((R)-1,1,2-trifluoro-1-(4-methyl-4H-1,2,4-triazol-3-yl)propan-2-yl)phenyl)-4-(trifluoromethyl)isoindolin-1-one] | – | – | < 0.1 µM | 0.1 to 0.3 µM | – | –
6 | CC(=O)N1CCN(c2ccc3cnc(C(=O)Nc4cccc([C@H](C)Cc5nncn5C)c4)cc3c2)CC1 [Compound 211, (R)-6-(4-acetylpiperazin-1-yl)-N-(3-(1-(4-methyl-4H-1,2,4-triazol-3-yl)propan-2-yl)phenyl)isoquinoline-3-carboxamide 2,2,2-trifluoroacetate] | 0.601 to 0.8 | > 1 | < 0.1 µM | 0.1 to 0.3 µM | > 0.201 | > 0.201
7 | C[C@H](Sc1nncn1C)c1cccc(NC(=O)c2ccc(F)c(C3CC3)n2)c1 [Compound 91, 6-Cyclopropyl-5-fluoro-N-[3-[(1S)-1-[(4-methyl-1,2,4-triazol-3-yl)sulfanyl]ethyl]phenyl]pyridine-2-carboxamide] | 0.601 to 0.8 | > 1 | < 0.1 µM | 0.1 to 0.3 µM | < 0.05 | 0.101 to 0.15
8 | Cc1n[nH]c(C)c1-c1cc2c(c(C(F)(F)F)c1)CN(c1cccc(C3(Cc4nncn4C)COC3)c1)C2=O [Compound 385, 6-(3,5-dimethyl-1H-pyrazol-4-yl)-2-(3-{3-[(4-methyl-4H-1,2,4-triazol-3-yl)methyl]oxetan-3-yl}phenyl)-4-(trifluoromethyl)-2,3-dihydro-1H-isoindol-1-one] | – | – | < 0.1 µM | < 0.1 µM | – | –
9 | Cn1cnnc1CC1(c2cccc(NC(=O)c3cc(CN4CC[C@H](F)C4)cc(C4CC4)n3)c2)COC1 [Compound 496, 6-cyclopropyl-4-{[(3S)-3-fluoropyrrolidin-1-yl]methyl}-N-(3-{3-[(4-methyl-1,2,4-triazol-3-yl)methyl]oxetan-3-yl}phenyl)pyridine-2-carboxamide] | – | – | < 0.1 µM | < 0.1 µM | – | –
10 | C[C@H](Cc1nncn1C)c1cccc(N2Cc3c(cc(CN4CC(O)C4)cc3C(F)(F)F)C2=O)c1 [Compound 393, (R)-6-((3-hydroxyazetidin-1-yl)methyl)-2-(3-(1-(4-methyl-4H-1,2,4-triazol-3-yl)propan-2-yl)phenyl)-4-(trifluoromethyl)isoindolin-1-one] | – | – | < 0.1 µM | < 0.1 µM | – | –
11 | C[C@H](Cc1nncn1C)c1cccc(N2Cc3c(cc(CN4CC(C)(O)C4)cc3C(F)(F)F)C2=O)c1 [Compound 397] | – | – | < 0.1 µM | < 0.1 µM | – | –
12 | Cn1cnnc1C(F)(F)[C@](C)(F)c1cccc(N2Cc3c(cc(CN4CC[C@@H](F)C4)cc3C(F)(F)F)C2=O)c1 [Compound 450] | – | – | < 0.1 µM | < 0.1 µM | – | –
13 | C[C@@H](c1cc2c(c(C(F)(F)F)c1)CN(c1cccc(C3(Cc4nncn4C)COC3)c1)C2=O)N1CCC(C)(F)CC1 [Example 553a, (S)-6-(1-(4-fluoro-4-methylpiperidin-1-yl)ethyl)-2-(3-(3-((4-methyl-4H-1,2,4-triazol-3-yl)methyl)oxetan-3-yl)phenyl)-4-(trifluoromethyl)isoindolin-1-one] | – | – | < 0.1 µM | < 0.1 µM | – | –
14 | Cn1cnnc1C(F)(F)[C@](C)(F)c1cccc(N2Cc3c(cc(CN4CCC(F)(F)C4)cc3C(F)(F)F)C2=O)c1 [Compound 448, (R)-6-((3,3-difluoropyrrolidin-1-yl)methyl)-2-(3-(1,1,2-trifluoro-1-(4-methyl-4H-1,2,4-triazol-3-yl)propan-2-yl)phenyl)-4-(trifluoromethyl)isoindolin-1-one] | – | – | < 0.1 µM | < 0.1 µM | – | –
15 | Cn1cnnc1C(F)(F)[C@](C)(F)c1cccc(N2Cc3c(cc(CN4CC[C@H](F)C4)cc3C(F)(F)F)C2=O)c1 [Compound 447, 6-(((S)-3-fluoropyrrolidin-1-yl)methyl)-2-(3-((R)-1,1,2-trifluoro-1-(4-methyl-4H-1,2,4-triazol-3-yl)propan-2-yl)phenyl)-4-(trifluoromethyl)isoindolin-1-one] | – | – | < 0.1 µM | < 0.1 µM | – | –
16 | C[C@H](Cc1nncn1C)c1cccc(N2Cc3c(cc(CN4CC[C@H](F)C4)cc3C(F)(F)F)C2=O)c1 [Compound 399, 6-(((S)-3-fluoropyrrolidin-1-yl)methyl)-2-(3-((R)-1-(4-methyl-4H-1,2,4-triazol-3-yl)propan-2-yl)phenyl)-4-(trifluoromethyl)isoindolin-1-one] | – | – | < 0.1 µM | < 0.1 µM | – | –
17 | C[C@H](Cc1nncn1C)c1cccc(NC(=O)c2cc3cc(N4CCNCC4)ccc3cn2)c1 [Compound 472, N-{3-[(2R)-1-(4-methyl-4H-1,2,4-triazol-3-yl)propan-2-yl]phenyl}-6-(piperazin-1-yl)isoquinoline-3-carboxamide] | – | – | < 0.1 µM | < 0.1 µM | – | –
18 | COC1CN(Cc2cc3c(c(C(F)(F)F)c2)CN(c2cccc([C@@](C)(F)C(F)(F)c4nncn4C)c2)C3=O)C1 [Compound 452, (R)-6-((3-methoxyazetidin-1-yl)methyl)-2-(3-(1,1,2-trifluoro-1-(4-methyl-4H-1,2,4-triazol-3-yl)propan-2-yl)phenyl)-4-(trifluoromethyl)isoindolin-1-one] | – | – | < 0.1 µM | < 0.1 µM | – | –
